Assay results: patent US20260116910A1, “POLYCYCLIC COMPOUNDS AND METHODS THEREOF” (HEPAITECH (BEIJING) BIOPHARMA TECHNOLOGY CO., LTD., priority 2021, published 2026)
pEC50: −log10 of the molar value.

Tests used:
MRGPRX4 = MRGPRX4 (Homo sapiens, UniProt Q96LA9); experiment: MRGPRX4 activation, Fluo-8 Ca2+ FLIPR assay in HEK293T cells stably expressing MRGPRX4; assay type: cell-based; settings: for EC50: MRGPRX4 activation, Ca2+ fluorescence, no activation in tested range reported as III, read-out: Activity (EC50 μM)
Description: In some embodiments, cells were cultured in poly-D-Lys coated blacked walled, clear-bottom 96-well microplates. HEK293T cells stably expressing MRGPRX4 were cultured in DMEM medium supplemented with 10% FBS and 1% PS, at 37° C. in a humidified atmosphere with 5% CO2. Cells were detached by centrifuging (1000 rpm, 3 min). The pellet was re-suspended in medium, and cell density was adjusted to about 1×10^6 cells/mL. 100 μL suspension was seeded to each well of a microplates (cell plate). Cells in the microplates were cultured overnight. In the following day, cells were grown to higher than 95% density in each well.
Ca^2+ fluorescent dye loading: Fluo-8 AM (Screen Quest Fluo-8 AM Calcium Assay Kit, AAT Bioquest, cat. #: 21083) was diluted in HHBS buffer and adjusted to 2 μM (dye buffer). Medium in each well was changed into 50 μL dye buffer carefully. After incubation for 40-60 min under room temperature, the dye buffer was changed into 50 μL HHBS buffer.
The concentration of solution should be determined according to the protocol settings and experimental needs (e.g., Log[M]=−4, −5, −6, −7, −8, and −9). Prepare 2× serial dilution series of compounds (at least 75 μL per well).
A fluorescent signal baseline was measured using FLIPR®Tetra for 30 s. Then 50 μL of the chemical solution would be added to the cell plate. The fluorescent signal would be measured for another 150 s.
Activity of each compound was calculated by the fluorescence change (dF/F0). Curves were fitted to obtain EC50 values. In some embodiments, at least 3 repeats were performed to obtain the average values. For assessment of a compound, gradient diluted solutions of different concentrations were used to treat cells and corresponding responses were used to fit sigmoid function and to derive EC50 in Origin. In some embodiments, assessed concentrations were or included about 10^−4, 10^−4.5, 10^−5, 10^−5.5, 10^−6, 10^−6.5, 10^−7, 10^−8, and/or 10^−9 M; for example, in many instances, assessed concentrations included about 10^−5, 10^−6, 10^−7 and 10^−8 M. In some embodiments, assessed concentrations were about 10^−4, 10^−4.5, 10^−5, 10^−5.5, 10^−6, 10^−7, 10^−8, and 10^−9 M. In some embodiments, assessed concentrations were about 10^−4, 10^−5, 10^−6, 10^−7, 10^−8, and 10^−9 M. In some embodiments, assessed concentrations were about 10^−4, 10^−4.5, 10^−5, 10^−5.5, 10^−6, and 10^−7 M. In some embodiments, assessed concentrations were about 2000000, 1000000, 500000, 250000, 125000, 62500, 31250, 15625, 7813, 3906 nM. […] In some embodiments, assessed concentrations were about 30000, 10000, 3333, 1111, 370, 123, 41, 14, 4.6, 1.5 nM.

human FXR (NR1H4) = biological target: T1, human FXR (NR1H4) (Homo sapiens, UniProt Q96RI1); experiment: Human FXR (NR1H4) agonist assessment, FXRE-NanoLuc reporter in HEK293T cells; assay type: cell-based; settings: FXR activation, HEK293T FXRE-NanoLuc reporter, 24 hr; for pEC50: read-out: EC50
T1 sequence (Q96RI1 1-476 isoform Q96RI1-1): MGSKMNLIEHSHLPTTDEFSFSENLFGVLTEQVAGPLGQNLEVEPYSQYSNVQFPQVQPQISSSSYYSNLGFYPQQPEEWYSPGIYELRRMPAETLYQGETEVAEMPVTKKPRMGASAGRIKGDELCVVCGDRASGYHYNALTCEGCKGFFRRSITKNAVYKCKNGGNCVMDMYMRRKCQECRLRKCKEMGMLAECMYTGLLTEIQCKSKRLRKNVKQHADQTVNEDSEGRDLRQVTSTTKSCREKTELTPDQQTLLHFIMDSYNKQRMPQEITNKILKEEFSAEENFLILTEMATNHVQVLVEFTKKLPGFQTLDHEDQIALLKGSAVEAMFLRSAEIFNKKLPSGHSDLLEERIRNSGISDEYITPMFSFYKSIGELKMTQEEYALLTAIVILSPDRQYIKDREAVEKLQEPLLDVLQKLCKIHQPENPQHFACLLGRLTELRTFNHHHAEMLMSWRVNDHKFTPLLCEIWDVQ
Description: As those skilled in the art appreciate, various technologies are available for assessment of FXR activation in accordance with the present disclosure. […] Human FXR (NR1H4) agonist assessment (see, e.g., Yu et al. eLife 2019; 8: e48431): HEK293T cells stably expressing human FXR and containing FXR response element (FXRE)-NanoLuc reporter were cultured in DMEM medium supplemented with 10% FBS and 1% PS, at 37° C. in a humidified atmosphere with 5% CO2. Cells were detached by centrifuging (1000 rpm, 3 min). The pellet was re-suspended in medium, and cell density was adjusted to about 1×10^6 cells/mL. 100 μL suspension was seeded to each well of a white-walled, clear-bottom 96-well microplates (cell plate). Cells in microplates were cultured overnight.
In the following day, cells were grown to higher than 95% density in each well. Culture medium was replaced, and compounds were added to the wells. 0.01% DMSO (v/v) served as negative control. Plates were incubated at 37° C. in 5% CO2 for 24 hr.
In the following day, a 10 μL aliquot of cell culture medium was removed from each well and combined with 40 μL culture medium plus […] assay buffer (containing 20 mM of the luciferase substrate coelenterazine). After 5 min incubation, luminescence was measured using an EnVision plate reader (PerkinElmer).
In some embodiments, gradient diluted solutions of several concentrations were used to treat cells and corresponding responses were used to fit sigmoid function and to derive EC50 in Origin.

Chain of MRGPRX4 (Q96LA9 whole entry): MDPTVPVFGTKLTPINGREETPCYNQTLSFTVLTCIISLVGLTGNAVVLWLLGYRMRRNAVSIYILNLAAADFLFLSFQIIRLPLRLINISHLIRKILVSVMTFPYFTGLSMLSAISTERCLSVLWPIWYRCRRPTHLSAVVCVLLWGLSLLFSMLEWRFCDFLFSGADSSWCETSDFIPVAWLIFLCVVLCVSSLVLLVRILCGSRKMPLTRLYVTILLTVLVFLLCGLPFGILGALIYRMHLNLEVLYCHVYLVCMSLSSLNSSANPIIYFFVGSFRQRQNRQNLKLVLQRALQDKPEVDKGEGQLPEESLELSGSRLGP

Structure (SMILES) | EC50 (MRGPRX4) [µM] | Efficacy (maximum measured induction of NanoLuc, normalized to CDCA set as 100%) (human FXR (NR1H4)) | pEC50 (human FXR (NR1H4)) | MRGPRX4 activation, fluorescence change (dF/F0), Average (MRGPRX4; Conc. (Log[M]) −4) | MRGPRX4 activation, fluorescence change (dF/F0), Average (MRGPRX4; Conc. (Log[M]) −4.5) | MRGPRX4 activation, fluorescence change (dF/F0), Average (MRGPRX4; Conc. (Log[M]) −5) | MRGPRX4 activation, fluorescence change (dF/F0), Average (MRGPRX4; Conc. (Log[M]) −5.5) | MRGPRX4 activation, fluorescence change (dF/F0), Average (MRGPRX4; Conc. (Log[M]) −6) | MRGPRX4 activation, fluorescence change (dF/F0), Average (MRGPRX4; Conc. (Log[M]) −7) | MRGPRX4 activation, fluorescence change (dF/F0), Average (MRGPRX4; Conc. (Log[M]) −8) | MRGPRX4 activation, fluorescence change (dF/F0), Average (MRGPRX4; Conc. (Log[M]) −9)
CC(O)CC[C@@H](C)[C@H]1CC[C@H]2[C@@H]3CC[C@@H]4CCCC[C@]4(C)[C@H]3CC[C@]12C (some centres unmarked) [2-2] | > 100 | C (100%<efficacy <=300%) | < 5.00 |  |  |  |  |  |  |  | 
C[C@H](CCC(C)(C)O)[C@H]1CC[C@H]2[C@@H]3CC[C@@H]4CCCC[C@]4(C)[C@H]3CC[C@]12C [2-3] | > 100 | C (100%<efficacy <=300%) | 5.00 to 6.00 | 0.074 | 0.027 | −0.036 | −0.031 | −0.031 | −0.008 | −0.023 | −0.017
CC[C@H]1[C@@H](O)[C@@H]2[C@H](CC[C@]3(C)[C@@H]([C@H](C)CC#N)CC[C@@H]23)[C@@]2(C)CCCC[C@@H]12 [2-4] | > 100 | C (100%<efficacy <=300%) | < 5.00 | 0.008 | −0.025 | −0.026 | −0.018 | −0.037 | −0.025 | −0.038 | −0.037
CC[C@H]1[C@@H](O)[C@@H]2[C@H](CC[C@]3(C)[C@@H]([C@H](C)CCO)CC[C@@H]23)[C@@]2(C)CCCC[C@@H]12 [2-5] | > 100 | A (efficacy >400%) | 5.00 to 6.00 |  |  |  |  |  |  |  | 
CC[C@H]1[C@@H](O)[C@@H]2[C@H](CC[C@]3(C)[C@@H]([C@H](C)CCCOS(=O)(=O)O)CC[C@@H]23)[C@@]2(C)CCCC[C@@H]12 [2-6] | 50 to 100 | B (300%<efficacy <=400%) | 5.00 to 6.00 |  |  | −0.047 |  |  |  |  | 
